Experimental data published in patent US20230135524A1, “ARYL HYDANTOIN HETEROCYCLES AND METHODS OF USE” (The United States of America,as represented by the …, priority 2020, published 2023).

Legend:
[1] = test system: 22Rv1; assay: IncuCyte % confluence cell growth inhibition, 22Rv1; format: cell-based; details: Homo sapiens, 22Rv1, read-out: IC50 values (μM), 22Rv1
Procedure: (§1) Images were then analyzed to discern the % confluence of cells in each well. IC50 values were calculated from dose response curves of the % cell growth inhibition relative to DMSO control at the same time point per each cell line.

[2] = test system: LNCaP ARin vivo; assay: IncuCyte % confluence cell growth inhibition, LNCaP ARin vivo; format: cell-based; details: Homo sapiens, read-out: IC50 values (μM), LNCaP ARin vivo
Procedure: as §1

[3] = test system: LNCaP ARF876L; assay: IncuCyte % confluence cell growth inhibition, LNCaP ARF876L; format: cell-based; details: Homo sapiens, AR-positive, AR mutation F876L, % cell growth inhibition relative to DMSO
Procedure: as §1

[4] = test system: PC3; assay: IncuCyte % confluence cell growth inhibition, PC3; format: cell-based; details: Homo sapiens, PC-3, read-out: IC50 values (μM), PC3
Procedure: as §1

[5] = target: T1, Androgen Receptor (UniProt P10275); assay: Radioligand competition binding, [3H] methyltrienolone; details: competition with 0.5 nM [3H] methyltrienolone
T1 sequence (P10275 1-920): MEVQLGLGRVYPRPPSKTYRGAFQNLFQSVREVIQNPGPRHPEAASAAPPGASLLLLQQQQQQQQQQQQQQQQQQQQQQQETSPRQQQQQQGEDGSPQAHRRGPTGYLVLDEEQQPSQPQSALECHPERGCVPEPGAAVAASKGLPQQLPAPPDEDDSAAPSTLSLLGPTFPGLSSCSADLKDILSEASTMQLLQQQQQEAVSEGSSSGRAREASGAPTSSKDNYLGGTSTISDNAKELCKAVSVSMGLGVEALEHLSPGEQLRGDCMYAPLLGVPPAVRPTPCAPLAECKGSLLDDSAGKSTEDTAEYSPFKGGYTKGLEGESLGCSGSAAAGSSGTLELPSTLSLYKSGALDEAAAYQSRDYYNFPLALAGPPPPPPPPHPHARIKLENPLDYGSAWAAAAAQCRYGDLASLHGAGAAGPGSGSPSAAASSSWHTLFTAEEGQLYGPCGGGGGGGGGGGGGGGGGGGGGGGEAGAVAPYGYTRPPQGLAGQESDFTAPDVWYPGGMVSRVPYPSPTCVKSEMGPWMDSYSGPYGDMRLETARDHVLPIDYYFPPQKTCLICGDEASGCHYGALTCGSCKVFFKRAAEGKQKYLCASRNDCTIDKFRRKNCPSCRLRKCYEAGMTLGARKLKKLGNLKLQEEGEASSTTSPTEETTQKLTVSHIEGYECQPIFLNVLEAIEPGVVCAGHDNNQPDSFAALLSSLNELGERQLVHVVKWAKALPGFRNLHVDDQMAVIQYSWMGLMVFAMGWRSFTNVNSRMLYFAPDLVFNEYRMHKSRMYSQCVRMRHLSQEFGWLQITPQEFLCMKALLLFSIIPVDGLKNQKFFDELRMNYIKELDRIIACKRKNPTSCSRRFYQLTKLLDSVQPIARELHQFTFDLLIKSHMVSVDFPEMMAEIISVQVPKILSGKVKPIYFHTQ
Procedure: (§2) Binding assays were performed via competition with radioactive ligands across a range of dose of compounds 15a and 19d. For aldosterone binding, the aldosterone receptor was incubated for 20 hours with […] aldosterone. Similarly, the androgen receptor was co-incubated with 0.5 nM of [^3H] methyltrienolone, the estrogen receptor alpha was co-incubated with 0.5 nM [^3H] estradiol, the glucocorticoid receptor with 0.5 nM [^3H] dexamethasone, and the progesterone receptor with 0.5 nM [^3H] progesterone as parent ligands.

[6] = target: T2, Progesterone Receptor B (Homo sapiens, UniProt P06401); assay: Radioligand competition binding, [3H] progesterone; details: competition with 0.5 nM [3H] progesterone
T2 sequence (P06401 1-933): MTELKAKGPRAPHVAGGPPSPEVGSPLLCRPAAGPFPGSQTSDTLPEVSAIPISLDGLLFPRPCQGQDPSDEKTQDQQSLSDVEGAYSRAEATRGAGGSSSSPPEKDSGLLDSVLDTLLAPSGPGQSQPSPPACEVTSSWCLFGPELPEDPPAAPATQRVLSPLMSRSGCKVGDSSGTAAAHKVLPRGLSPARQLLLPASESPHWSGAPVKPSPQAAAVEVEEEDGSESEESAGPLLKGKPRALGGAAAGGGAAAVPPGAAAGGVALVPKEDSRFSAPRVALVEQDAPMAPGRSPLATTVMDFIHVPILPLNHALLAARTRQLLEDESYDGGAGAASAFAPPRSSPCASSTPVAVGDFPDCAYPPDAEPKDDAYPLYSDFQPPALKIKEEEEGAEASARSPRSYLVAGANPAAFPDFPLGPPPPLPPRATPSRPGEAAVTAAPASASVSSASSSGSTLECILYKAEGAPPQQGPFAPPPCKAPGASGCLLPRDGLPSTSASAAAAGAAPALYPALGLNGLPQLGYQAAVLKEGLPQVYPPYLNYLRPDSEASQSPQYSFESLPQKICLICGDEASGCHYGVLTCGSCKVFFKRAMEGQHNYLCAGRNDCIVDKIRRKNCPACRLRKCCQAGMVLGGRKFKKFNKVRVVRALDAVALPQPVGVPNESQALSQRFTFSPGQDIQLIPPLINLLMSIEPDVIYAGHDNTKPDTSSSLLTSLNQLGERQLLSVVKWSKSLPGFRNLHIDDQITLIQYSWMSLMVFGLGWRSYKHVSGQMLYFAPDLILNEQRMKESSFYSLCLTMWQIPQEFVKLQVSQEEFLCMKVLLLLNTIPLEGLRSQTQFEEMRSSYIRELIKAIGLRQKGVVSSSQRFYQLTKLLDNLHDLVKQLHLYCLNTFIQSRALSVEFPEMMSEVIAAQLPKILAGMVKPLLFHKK
Procedure: as §2

In the case of `CC1(C)C(=O)N(c2ccc(C#N)c(C(F)(F)F)c2)C(=S)N1Cc1ccc(-c2c[nH]nn2)cc1` [Compound 15a, 4-(3-(4-(1H-1,2,3-triazol-4-yl)benzyl)-4,4-dimethyl-5-oxo-2-thioxoimidazolidin-1-yl)-2-(trifluoromethyl)benzonitrile], the IC50 [1] is reported as 18.3 µM, the IC50 [2] is reported as 18.5 µM and the IC50 [3] is reported as 21 µM. It also gave an IC50 [4] of 59.8 µM, an IC50 [5] of 12.5 nM and an IC50 [6] of 103 nM.

`CC1(C)C(=O)N(c2ccc(C#N)c(C(F)(F)F)c2)C(=S)N1Cc1ccc(-c2c[nH]nn2)cc1F` [Compound 19d, 4-(3-(2-Fluoro-4-(1H-1,2,3-triazol-4-yl)benzyl)-4,4-dimethyl-5-oxo-2-thioxoimidazolidin-1-yl)-2-(trifluoromethyl)benzonitrile] showed an IC50 [1] of 26.9 µM, an IC50 [2] of 28.2 µM and an IC50 [3] of 22.3 µM. The IC50 [4] was 44.8 µM, the IC50 [5] was 9.3 nM and the IC50 [6] was 76.3 nM.
